pIC50: −log10 of the molar value.

The subject of one series is prostate cancer. The note with it: 5 mg of DES p.o. per day; cited from earlier work.
For series [1] the following is noted: buccal administration; cited from earlier work.
In a further series the test system is prostate cancer cells. Particulars: cited from earlier work.
Series [2] relates to DU-145 prostate cancer cells. Particulars: through inhibition of microtubule formation; cited from earlier work.
Series [3] relates to DU-145 hormone-independent prostate cancer cell line. As to the kind of experiment: in vitro direct cytotoxicity, Cell titer blue viability assay. Type of series: cell-based. Particulars: Homo sapiens; DU-145, 72 hrs incubation. How it is done:
(§1) Cells were maintained in vitro in RPMI 1640 containing 10% (v/v) heat inactivated fetal bovine serum (FBS) and 2 mM L-glutamine (growth media) at 37° C. in 5% CO2 and humidified conditions. Cells were harvested, washed, re-suspended into growth medium and counted. The cells were re-suspended into assay media (RPMI 1640+1% (v/v) heat inactivated FBS+ and 2 mM L-glutamine) at 0.5×10^5 cells/ml for DU-145 cells and 1×10^5 for LNCaP cells, and plated into 96-well assay plates (Corning, black-wall plates) and 50 μl/well aliquots.
(§2) Plates were incubated O/N at 37° C. in 5% humidified CO2 prior to addition of the compounds. […] Fosfestrol was dissolved in sterile water at stock concentration of 60 mM. Stocks of all compounds were then serially diluted. Final concentrations to which cells were exposed were: 300, 150, 75, 37.5, 18.75, 9.4, 4.7, 2.3, 1.2 and 0.6 μM. Positive control was Taxotere. Taxotere was diluted in 100% DSMO to give a stock concentration of 1 mM. Stock was serial diluted and final concentration to which cells were exposed was: 1000, 333.3, 111.1, 37.0, 12.3, 4.1, 1.4, 0.5, and 0.2 nM.
(§3) Plates were incubated for 72 hrs at 37° C. in 5% humidified CO-2 after addition of the compounds. Viability of the cells was assessed with the Cell titer blue® (Promega) assay. […] Fluorescence was measured with a Flex II station plate reader. […]

The test system of series [4] is LNCaP hormone-dependent prostate cancer cell line. Described as above. It counts as cell-based. The note with it: Homo sapiens, 72 hrs incubation. How it is done:
as §1, §2, §3

Turning to `CC/C(=C(/CC)c1ccc(O)cc1)c1ccc(O)cc1` [DES, diethylstilbestrol], the “increase of non-cancer related deaths, mostly cardiovascular” value in the series on prostate cancer is listed as 36%. Further, in series [1], the “DES plasma level, on average” value is 11 ng DES/ml and the “induction of thromboembolic activator (Fibrinogen)” value is recorded as “without inducing a thromboembolic activator (Fibrinogen)”. Besides, in the series with prostate cancer cells, the “DES concentrations that do not influence prostate cancer cell growth” value is on record as “up to 100 ng/ml” and the “minimal concentration of DES to induce some cytotoxic effects” value is 1 µg/mL. The “effect on DU-145 prostate cancer cells” value in series [2] is on record as “cytotoxic effects”.
Consider `CC(=O)O[C@@]12CO[C@@H]1C[C@H](O)[C@@]1(C)C(=O)[C@H](O)C3=C(C)[C@@H](OC(=O)[C@H](O)[C@@H](NC(=O)OC(C)(C)C)c4ccccc4)C[C@@](O)([C@@H](OC(=O)c4ccccc4)[C@H]21)C3(C)C` [Taxotere], for which the results for the pIC50 in series [3] and in series [4] were 8.40 and 8.70, respectively.

For orientation: pIC50 means the negative decadic logarithm of the IC50, by convention in mol/L.

(Values after patent publication US20170258817A1, “FOSFESTROL FOR USE IN CURATIVE OR PALLIATIVE TREATMENT OF PROSTATE CANCER” (CHAMAELEO PHARMA BVBA, priority 2012, published 2017).)
